Laboratory results taken from patent publication US7241760B2, “Heteroaryl-substituted imidazole derivatives” (Hoffmann-La Roche Inc., priority 2003, dated 2007).
pKi: −log10 of the molar value.

What follows are compounds tested against T1, human mGlu 5a receptor (Homo sapiens, UniProt P41594) (assay: [3H]MPEP competition binding on membranes of EBNA cells transfected with human mGlu 5a receptor). Conditions: competition with [3H]MPEP (2 nM), 1 h at 4° C., membranes of transiently transfected EBNA cells; Ki=IC50/[1+L/Kd].
T1 construct: expressed in transfected cells; host or cells: EBNA cells (transient transfection); cell membrane homogenates
T1 sequence (P41594 21-1180 isoform P41594-2 limits assumed): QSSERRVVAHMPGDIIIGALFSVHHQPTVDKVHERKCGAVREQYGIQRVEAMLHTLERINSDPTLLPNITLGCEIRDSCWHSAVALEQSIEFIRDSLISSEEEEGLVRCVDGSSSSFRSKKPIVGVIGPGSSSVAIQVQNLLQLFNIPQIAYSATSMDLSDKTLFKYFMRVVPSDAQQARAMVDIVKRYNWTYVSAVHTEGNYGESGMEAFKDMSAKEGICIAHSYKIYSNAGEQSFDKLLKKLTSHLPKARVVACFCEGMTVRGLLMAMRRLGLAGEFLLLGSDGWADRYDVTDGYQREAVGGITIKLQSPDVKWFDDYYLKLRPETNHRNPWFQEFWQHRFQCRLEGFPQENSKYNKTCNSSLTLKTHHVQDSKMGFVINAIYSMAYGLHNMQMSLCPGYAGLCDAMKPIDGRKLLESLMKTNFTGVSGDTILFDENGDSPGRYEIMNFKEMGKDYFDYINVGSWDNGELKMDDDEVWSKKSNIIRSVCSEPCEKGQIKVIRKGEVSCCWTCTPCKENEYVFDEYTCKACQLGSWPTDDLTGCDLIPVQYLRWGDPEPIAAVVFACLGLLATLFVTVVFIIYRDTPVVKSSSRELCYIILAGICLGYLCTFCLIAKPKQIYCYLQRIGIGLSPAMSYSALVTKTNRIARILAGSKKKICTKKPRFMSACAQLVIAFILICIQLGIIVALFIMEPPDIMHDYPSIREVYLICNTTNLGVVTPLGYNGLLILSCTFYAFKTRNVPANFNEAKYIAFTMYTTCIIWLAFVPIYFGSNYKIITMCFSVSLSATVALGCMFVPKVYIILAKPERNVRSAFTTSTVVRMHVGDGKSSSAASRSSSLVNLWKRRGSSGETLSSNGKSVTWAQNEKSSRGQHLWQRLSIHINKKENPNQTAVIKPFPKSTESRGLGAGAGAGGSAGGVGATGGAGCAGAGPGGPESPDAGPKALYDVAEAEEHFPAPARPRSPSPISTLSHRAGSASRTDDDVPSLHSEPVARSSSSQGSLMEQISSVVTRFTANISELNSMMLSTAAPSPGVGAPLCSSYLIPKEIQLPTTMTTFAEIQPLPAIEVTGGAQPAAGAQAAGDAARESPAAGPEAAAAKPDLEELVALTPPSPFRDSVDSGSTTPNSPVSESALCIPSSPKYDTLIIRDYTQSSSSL
Experimental: For binding experiments, cDNA encoding human mGlu 5a receptor was transiently transfected into EBNA cells using a procedure described by Schlaeger and Christensen [Cytotechnology 15:1–13 (1998)]. Cell membrane homogenates were stored at −80° C. until the day of assay where upon they were thawed and resuspended and polytronised in 15 mM Tris-HCl, 120 mM NaCl, 100 mM KCl, 25 mM CaCl2, 25 mM MgCl2 binding buffer at pH 7.4 to a final assay concentration of 20 μg protein/well.
Saturation isotherms were determined by addition of twelve [^3H]MPEP concentrations (0.04–100 nM) to these membranes (in a total volume of 200 μl) for 1 h at 4° C. Competition experiments were performed with a fixed concentration of [^3H]MPEP (2 nM) and IC50 values of test compounds evaluated using 11 concentrations (0.3–10,000 nM). Incubations were performed for 1 h at 4° C.
At the end of the incubation, membranes were filtered onto unifilter (96-well white microplate with bonded GF/C filter preincubated 1 h in 0.1% PEI in wash buffer, Packard BioScience, Meriden, Conn.) with a Filtermate 96 harvester (Packard BioScience) and washed 3 times with cold 50 mM Tris-HCl, pH 7.4 buffer. Nonspecific binding was measured in the presence of 10 μM MPEP. The radioactivity on the filter was counted (3 min) on a Packard Top-count microplate scintillation counter with quenching correction after addition of 45 μl of microscint 40 (Can berra Packard S. A., Zürich, Switzerland) and shaking for 20 min. For functional assays, [Ca^2+]i measurements were performed as described previously by Porter et al. [Br. J. Pharmacol. 128:13–20 (1999)] on recombinant human mGlu 5a receptors in HEK-293 cells. The cells were dye loaded using Fluo 4-AM (obtainable by FLUKA, 0.2 μM final concentration). [Ca^2+]i measurements were performed using a fluorometric imaging plate reader (FLIPR, Molecular Devices Corporation, La Jolla, Calif., USA). Antagonist evaluation was performed following a 5 min preincubation with the test compounds followed by the addition of a submaximal addition of agonist.
The inhibition (antagonists) curves were fitted with a four parameter logistic equation giving IC50, and Hill coefficient using an iterative non linear curve fitting software (Xcel fit).
For binding experiments the Ki values of the compounds tested are given. The Ki value is defined by the following formula: Ki=IC50/[1+L/Kd] in which the IC50 values are those concentrations of the compounds tested which cause 50% inhibition of the competing radioligand ([^3H]MPEP). L is the concentration of radioligand used in the binding experiment and the Kd value of the radioligand is empirically determined for each batch of membranes prepared.

**Q.** `Cc1nc(C#Cc2cccc(Cl)c2)cn1-c1ncccn1` [Example 1, 2-[4-(3-Chloro-phenylethynyl)-2-methyl-imidazol-1-yl]-pyrimidine] was tested. Which pKi did it give?
**A.** 7.20

**Q.** How did the pKi turn out when `Cc1nc(C#Cc2cccc(Cl)c2)cn1-c1nccc(C(F)(F)F)n1` [Example 2, 2-[4-(3-Chloro-phenylethynyl)-2-methyl-imidazol-1-yl]-4-trifluoromethyl-pyrimidine] was run?
**A.** 7.55

**Q.** With `Cc1cccc(-n2cc(C#Cc3cccc(C#N)c3)nc2C)n1` [Example 3, 3-[2-Methyl-1-(6-methyl-pyridin-2-yl)-1H-imidazol-4-ylethynyl]-benzonitrile] as the compound, how does the pKi read?
**A.** 7.51

**Q.** `Cc1cc(-n2cc(C#Cc3cccc(Cl)c3)nc2C)cnn1` [Example 8, 5-[4-(3-Chloro-phenylethynyl)-2-methyl-imidazol-1-yl]-3-methyl-pyridazine] was tested. Which pKi did it give?
**A.** 6.80

**Q.** How did the pKi turn out when `Cc1nc(C#Cc2cccc(Cl)c2)cn1-c1ccoc1` [Example 9, 4-(3-Chloro-phenylethynyl)-1-furan-3-yl-2-methyl-1H-imidazole] was run?
**A.** 7.96

**Q.** With `COc1ccnc(-n2cc(C#Cc3cccc(C#N)c3)nc2C)n1` [Example 20, 3-[1-(4-Methoxy-pyrimidin-2-yl)-2-methyl-1H-imidazol-4-ylethynyl]-benzonitrile] as the compound, how does the pKi read?
**A.** 7.96

**Q.** With `Cc1nc(C#Cc2cccc(C#N)c2)cn1-c1cnccn1` [Example 22, 3-(2-Methyl-1-pyrazin-2-yl-1H-imidazol-4-ylethynyl)-benzonitrile] as the compound, how does the pKi read?
**A.** 7.22

**Q.** `Cc1nc(C#Cc2cccc(Cl)c2)cn1-c1ccc(Cl)nn1` [Example 25, 3-Chloro-6-[4-(3-chloro-phenylethynyl)-2-methyl-imidazol-1-yl]-pyridazine] was tested. Which pKi did it give?
**A.** 7.49

**Q.** `COc1ccc(-n2cc(C#Cc3cccc(Cl)c3)nc2C)nn1` [Example 26, 3-[4-(3-Chloro-phenylethynyl)-2-methyl-imidazol-1-yl]-6-methoxy-pyridazine] was tested. Which pKi did it give?
**A.** 7.03

**Q.** How did the pKi turn out when `Cc1nc(C#Cc2cccc(Cl)c2)cn1-c1ccc(N(C)C)nn1` [Example 27, {6-[4-(3-Chloro-phenylethynyl)-2-methyl-imidazol-1-yl]-pyridazin-3-yl}-dimethyl-amine] was run?
**A.** 6.89

**Q.** `Cc1ccc(-n2cc(C#Cc3cccc(C(F)(F)F)c3)nc2C)nc1` [Example 31, 5-Methyl-2-[2-methyl-4-(3-trifluoromethyl-phenylethynyl)-imidazol-1-yl]-pyridine] was tested. Which pKi did it give?
**A.** 7.06

**Q.** How did the pKi turn out when `Cc1nc(C#Cc2cccc(C(F)(F)F)c2)cn1-c1ccc(Cl)nc1` [Example 33, 2-Chloro-5-[2-methyl-4-(3-trifluoromethyl-phenylethynyl)-imidazol-1-yl]-pyridine] was run?
**A.** 7.18

**Q.** `Cc1nc(C#Cc2cccc(C#N)c2)cn1-c1cncc(F)c1` [Example 35, 3-[1-(5-Fluoro-pyridin-3-yl)-2-methyl-1H-imidazol-4-ylethynyl]-benzonitrile] was tested. Which pKi did it give?
**A.** 7.41

**Q.** How did the pKi turn out when `Cc1nc(C#Cc2cccc(C#N)c2)cn1-c1cncc(N(C)C)c1` [Example 38, 3-[1-(5-Dimethylamino-pyridin-3-yl)-2-methyl-1H-imidazol-4-ylethynyl]-benzonitrile] was run?
**A.** 7.00

**Q.** With `Cc1nc(C#Cc2cccc(Cl)c2)cn1-c1cccc(N2CCSCC2)n1` [Example 39, 4-{6-[4-(3-Chloro-phenylethynyl)-2-methyl-imidazol-1-yl]-pyridin-2-yl}-thiomorpholine] as the compound, how does the pKi read?
**A.** 8.05

**Q.** `Cc1nc(C#Cc2cccc(Cl)c2)cn1-c1cccc(N2CCS(=O)(=O)CC2)n1` [Example 40, 4-{6-[4-(3-Chloro-phenylethynyl)-2-methyl-imidazol-1-yl]-pyridin-2-yl}-thiomorpholine-1,1-dioxide] was tested. Which pKi did it give?
**A.** 7.17
